According to patent publication US20250084063A1 (Incyte Corporation, priority 2023, published 2025):
pIC50: −log10 of the molar value.

Legend:
Assay type in all cases: cell-based
MRGPRX2 [1] = target: T1, MRGPRX2 (Homo sapiens, UniProt Q96LB1); test: MRGPRX2 β-Arrestin assay; parameters: host or cells: PathHunter CHO-K1; details: PathHunter CHO-K1 MRGPRX2 β-Arrestin cell line; agonist Cortistatin 14 0.25 μM
T1 sequence (Q96LB1 1-330): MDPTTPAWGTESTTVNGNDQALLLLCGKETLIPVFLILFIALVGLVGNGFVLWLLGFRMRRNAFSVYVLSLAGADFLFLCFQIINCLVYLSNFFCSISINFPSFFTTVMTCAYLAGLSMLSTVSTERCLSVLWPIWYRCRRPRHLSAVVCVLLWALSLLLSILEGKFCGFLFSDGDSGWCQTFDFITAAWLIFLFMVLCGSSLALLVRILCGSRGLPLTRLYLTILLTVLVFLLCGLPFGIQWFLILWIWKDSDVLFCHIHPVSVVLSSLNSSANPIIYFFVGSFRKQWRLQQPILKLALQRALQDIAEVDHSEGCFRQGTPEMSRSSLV
Text: Example C: MRGPRX2 β-Arrestin Assay
This assay measures compound inhibition of β-Arrestin recruitment, which is part of the G protein-independent pathway that results from the ligand-activated GPCR phosphorylation by specific GPCR kinases. The PathHunter CHO-K1 MRPGRX2 B-Arrestin Cell line stably expressing ProLink tagged MRGPRX2 and Enzyme Acceptor Tagged B-Arrestin was purchased from Eurofins DiscoverX, (Fremont, CA).
The cells were maintained in culture medium from the Europhins DiscoverX Cell Culture Kit-107 which includes FBS, hygromycin B and G418. For the assay, the cells were harvested and were resuspended with Cell Plating Reagent 2 (Eurofins DiscoverX). Cells were added 10000 cells in 25 µL/well to a 384-well black cell culture plate (Greiner VWR, Radnor, PA) which contained 125 nL/well of compound at a selected serially diluted concentration range or DMSO. The plate was incubated at 37° C. with 5% CO2 for 1 h. 2 μL/well of agonist Cortistatin 14 was diluted in Protein Dilution Buffer, (Eurofins DiscoverX) for a final concentration of 0.25 μM, was added and the plate was incubated at 37° C. with 5% CO2 for 90 min. 14 μL/well of Detection Reagent Mix (PathHunter Detection Kit, Eurofins DiscoverX) was added to the plates and further incubated for 1 h in the dark. Plates were read on the PHERAstar microplate reader (BMG Labtech Cary, NC) measuring luminescence 0.1 to 1 second per well. Data was normalized using DMSO only wells and wells with high concentration of reference antagonist as controls. Compound IC50 curves were globally fitted with 3- or 4-parameter Hill equation in a Genedata Screener (Genedata Basel, Switzerland).

MRGPRX2 [2] = target: T1, MRGPRX2; test: MRGPRX2 FLIPR calcium mobilization assay; parameters: host or cells: CHO-K1; details: CHO-K1 cells stably expressing human MRGPRX2; Ca2+ release, agonist Cortistatin-14 at EC80
Method in brief: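 CHO-K1 cells stably expressing human MRGPRX2, loaded with Calcium 6 dye, pre-incubated 30 min at room temperature with test compound in HBSS/20 mM HEPES pH 7.4. Then challenged with Cortistatin-14 at EC80; baseline-adjusted peak fluorescence over 110 s fitted to a Hill equation for IC50.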

MRGPRX2 [3] = target: T1, MRGPRX2; test: MRGPRX2 IP1 HTRF assay; parameters: host or cells: CHO-K1; details: CHO-K1 cells stably expressing human MRGPRX2; IP1 accumulation, agonist Cortistatin 14 1 μM

| pIC50 (MRGPRX2 [1]) | pIC50 (MRGPRX2 [2]) | pIC50 (MRGPRX2 [3]) | Structure (SMILES) |
| --- | --- | --- | --- |
| 7.00 to 10.00 | 7.00 to 10.00 | 7.00 to 10.00 | NS(=O)(=O)N1CC(CNc2cc(C(F)(F)C(F)(F)F)nc3ccc(Cl)cc23)(c2ccc(F)cc2)C1 [Example 4, 3-(((6-Chloro-2-(perfluoroethyl)quinolin-4-yl)amino)methyl)-3-(4-fluorophenyl)azetidine-1-sulfonamide] |
| 7.00 to 10.00 | 7.00 to 10.00 | 7.00 to 10.00 | NC(=O)N1CC(CNc2cc(C(F)(F)F)nc3ccc(Br)cc23)(c2ccc(F)cn2)C1 [Example 6, 3-(((6-Bromo-2-(trifluoromethyl)quinolin-4-yl)amino)methyl)-3-(5-fluoropyridin-2-yl)azetidine-1-carboxamide] |
| 7.00 to 10.00 | 7.00 to 10.00 | 7.00 to 10.00 | N#CN=C(N)N1CC(CNc2cc(C(F)(F)F)nc3ccc(Cl)cc23)(c2ccc(F)cc2)C1 [Example 7, 3-(((6-Chloro-2-(trifluoromethyl)quinolin-4-yl)amino)methyl)-N′-cyano-3-(4-fluorophenyl)azetidine-1-carboximidamide] |
| 7.00 to 10.00 | 7.00 to 10.00 | 7.00 to 10.00 | O=C1CC(CNc2cc(C(F)(F)F)nc3ccc(Cl)cc23)(c2ccccc2)CN1 (stereo not drawn) [Example 8, 4-(((6-Chloro-2-(trifluoromethyl)quinolin-4-yl)amino)methyl)-4-phenylpyrrolidin-2-one] |
| 7.00 to 10.00 | 7.00 to 10.00 | 7.00 to 10.00 | N#CN=C(N)N1CCC(CNc2cc(C(F)(F)F)nc3ccc(Cl)cc23)(c2ccccc2)CC1 [Example 9, 4-(((6-Chloro-2-(trifluoromethyl)quinolin-4-yl)amino)methyl)-N′-cyano-4-phenylpiperidine-1-carboximidamide] |
| 7.00 to 10.00 | 7.00 to 10.00 | 7.00 to 10.00 | NS(=O)(=O)N1CCC(CNc2cc(C(F)(F)F)nc3ccc(F)cc23)(c2ccccc2)CC1 [Example 11, 4-(((6-Fluoro-2-(trifluoromethyl)quinolin-4-yl)amino)methyl)-4-phenylpiperidine-1-sulfonamide] |
| 7.00 to 10.00 | 7.00 to 10.00 | 7.00 to 10.00 | NS(=O)(=O)N1CCC(CNc2cc(C(F)(F)F)nc3ccc(Cl)cc23)(c2ccccc2)CC1 [Example 12, 4-(((6-Chloro-2-(trifluoromethyl)quinolin-4-yl)amino)methyl)-4-phenylpiperidine-1-sulfonamide] |
| 7.00 to 10.00 | 7.00 to 10.00 | 7.00 to 10.00 | CNC(=O)N1CCC(CNc2cc(C(F)(F)F)nc3ccc(Cl)cc23)(c2ccccc2)C1 (stereo not drawn) [Example 14, 3-(((6-Chloro-2-(trifluoromethyl)quinolin-4-yl)amino)methyl)-N-methyl-3-phenylpyrrolidine-1-carboxamide] |
| 7.00 to 10.00 | 7.00 to 10.00 | 7.00 to 10.00 | FC(F)(F)c1cc(NCC2(c3ccccc3)CCOC2)c2cc(Cl)ccc2n1 (stereo not drawn) [Example 16, 6-Chloro-N-((3-phenyltetrahydrofuran-3-yl)methyl)-2-(trifluoromethyl)quinolin-4-amine] |
| 7.00 to 10.00 | 7.00 to 10.00 | 7.00 to 10.00 | FC(F)(F)c1cc(NCC2(c3ccccc3)CCOCC2)c2cc(Cl)ccc2n1 [Example 17, 6-Chloro-N-((4-phenyltetrahydro-2H-pyran-4-yl)methyl)-2-(trifluoromethyl)quinolin-4-amine] |
| 7.00 to 10.00 | 7.00 to 10.00 | 7.00 to 10.00 | O=C(NC1CC(F)(F)C1)N1CC(CNc2cc(C(F)(F)F)nc3ccc(Cl)cc23)(c2ccc(F)cn2)C1 [Example 19, 3-(((6-Chloro-2-(trifluoromethyl)quinolin-4-yl)amino)methyl)-N-(3,3-difluorocyclobutyl)-3-(5-fluoropyridin-2-yl)azetidine-1-carboxamide] |
| 7.00 to 10.00 | 7.00 to 10.00 | 7.00 to 10.00 | NC(=O)N1CCC(CNc2cc(C(F)(F)F)nc3ccc(Cl)cc23)(c2ccc(F)cn2)C1 (stereo not drawn) [Example 20, 3-(((6-Chloro-2-(trifluoromethyl)quinolin-4-yl)amino)methyl)-3-(5-fluoropyridin-2-yl) pyrrolidine-1-carboxamide] |
| 7.00 to 10.00 | 7.00 to 10.00 | 7.00 to 10.00 | NC(=O)N1CC(CNc2cc(C(F)(F)F)nc3ccc(F)cc23)(c2ccc(F)cc2)C1 [Example 25, 3-(((6-Fluoro-2-(trifluoromethyl)quinolin-4-yl)amino)methyl)-3-(4-fluorophenyl)azetidine-1-carboxamide] |

The remaining lines, values behind:

| Structure (SMILES) | pIC50 (MRGPRX2 [1]) | pIC50 (MRGPRX2 [2]) | pIC50 (MRGPRX2 [3]) |
| --- | --- | --- | --- |
| Cc1ccc2nc(C(F)(F)F)cc(NCC3(c4ccc(F)cc4)CN(S(N)(=O)=O)C3)c2c1 [Example 2, 3-(4-Fluorophenyl)-3-(((6-methyl-2-(trifluoromethyl)quinolin-4-yl)amino)methyl)azetidine-1-sulfonamide] | 7.00 to 10.00 | 7.00 to 10.00 | 7.00 to 10.00 |
| NS(=O)(=O)N1CC(CNc2cc(C(F)(F)F)nc3ccc(Br)cc23)(c2ccc(F)cc2)C1 [Example 3, 3-(((6-Bromo-2-(trifluoromethyl)quinolin-4-yl)amino)methyl)-3-(4-fluorophenyl)azetidine-1-sulfonamide] | 7.00 to 10.00 | 7.00 to 10.00 | 7.00 to 10.00 |
| NS(=O)(=O)N1CC(CNc2cc(C(F)F)nc3ccc(Cl)cc23)(c2ccc(F)cc2)C1 [Example 5, 3-(((6-Chloro-2-(difluoromethyl)quinolin-4-yl)amino)methyl)-3-(4-fluorophenyl)azetidine-1-sulfonamide] | 7.00 to 10.00 | 7.00 to 10.00 | 7.00 to 10.00 |
| NS(=O)(=O)N1CC(CNc2cc(C(F)(F)F)nc3ccc(F)cc23)(n2cc(F)cn2)C1 [Example 10, 3-(4-Fluoro-1H-pyrazol-1-yl)-3-(((6-fluoro-2-(trifluoromethyl)quinolin-4-yl)amino)methyl)azetidine-1-sulfonamide] | 7.00 to 10.00 | 7.00 to 10.00 | 7.00 to 10.00 |
| NS(=O)(=O)N1CC(CNc2cc(C(F)(F)F)nc3ccc(Cl)cc23)(n2ccc(F)n2)C1 [Example 18, 3-(((6-Chloro-2-(trifluoromethyl)quinolin-4-yl)amino)methyl)-3-(3-fluoro-1H-pyrazol-1-yl)azetidine-1-sulfonamide] | 7.00 to 10.00 | 7.00 to 10.00 | 7.00 to 10.00 |
| CC(C)NC(=O)N1CC(CNc2cc(C(F)(F)F)nc3ccc(Cl)cc23)(n2cc(F)cn2)C1 [Example 21, 3-(((6-Chloro-2-(trifluoromethyl)quinolin-4-yl)amino)methyl)-3-(4-fluoro-1H-pyrazol-1-yl)-N-isopropylazetidine-1-carboxamide] | 7.00 to 10.00 | 7.00 to 10.00 | 7.00 to 10.00 |
| O=C(NC1CC(F)(F)C1)N1CC(CNc2cc(C(F)(F)F)nc3ccc(Cl)cc23)(n2cc(F)cn2)C1 [Example 22, 3-(((6-Chloro-2-(trifluoromethyl)quinolin-4-yl)amino)methyl)-N-(3,3-difluorocyclobutyl)-3-(4-fluoro-1H-pyrazol-1-yl)azetidine-1-carboxamide] | 7.00 to 10.00 | 7.00 to 10.00 | 7.00 to 10.00 |
| NS(=O)(=O)N1CC(CNc2cc(C(F)(F)F)nc3ccc(F)cc23)(c2ccc(F)cc2)C1 [Example 23, 3-(((6-Fluoro-2-(trifluoromethyl)quinolin-4-yl)amino)methyl)-3-(4-fluorophenyl)azetidine-1-sulfonamide] | 7.00 to 10.00 | 7.00 to 10.00 | 7.00 to 10.00 |
| NS(=O)(=O)N1CC(CNc2cc(C(F)(F)F)nc3ccc(Cl)cc23)(n2cc(F)cn2)C1 [Example 24, 3-(((6-Chloro-2-(trifluoromethyl)quinolin-4-yl)amino)methyl)-3-(4-fluoro-1H-pyrazol-1-yl)azetidine-1-sulfonamide] | 7.00 to 10.00 | 7.00 to 10.00 | 7.00 to 10.00 |
| [2H]C([2H])([2H])NC(=O)N1CC(CNc2cc(C(F)(F)F)nc3ccc(Cl)cc23)(n2cc(F)cn2)C1 [Example 26, 3-(((6-Chloro-2-(trifluoromethyl)quinolin-4-yl)amino)methyl)-3-(4-fluoro-1H-pyrazol-1-yl)-N-(methyl-d3)azetidine-1-carboxamide] | 7.00 to 10.00 | 7.00 to 10.00 | 7.00 to 10.00 |
